In brackets after ≈: the same amount, converted by molar mass.
Assay: Equilibrium solubility of topiramate in de-ionized water and in aqueous surfactant solutions
Assay type: physicochemical
Description: The resulting solution saturated with the pharmaceutical agent is then filtered, typically under pressure through a 0.8-micron Millipore filter, and the concentration of the pharmaceutical agent in the solution is measured by any appropriate analytical method including gravimetric, ultraviolet spectrophometry, chromatography, and the like. The solubility of the pharmaceutical agent is measured at equilibrium.
A drug composition of the present invention was prepared as follows. Aqueous solutions of five surfactants were prepared. The selected surfactants were four grades of ethylene oxide/propylene oxide/ethylene oxide (LUTROL grades F127, F87, F 108, and F68) and PEG-40 stearate (MYRJ 52). Solutions were made at concentrations of 1, 5, and 15 weight percent. The aqueous surfactant blends solutions were chilled as necessary to promote complete dissolution of the surfactant prior to drug solubility studies.
The aqueous surfactant solutions were equilibrated to constant temperature in a 37° C. water bath. Then, neat topiramate drug was added slowly with stirring in about 10 mg increments to the surfactant solutions until no more drug dissolved. […] The resulting saturated solutions of drug were filtered through 0.8 micron filters and analyzed for drug concentration by refractive index chromatography. […]

CC1(C)O[C@@H]2[C@@H](CO[C@@]3(COS(N)(=O)=O)OC(C)(C)O[C@@H]23)O1 [topiramate]
solubility (37 °C, thermodynamic from solid, de-ionized water, no temperature printed at the place, read-out: Solubility of neat topiramate in de-ionized water): ~12 mg/mL (≈ 35.4 mM)
Topiramate solubility in water in the presence of surfactant, compared to control without surfactant (LUTROL F127, F87, F108, F68 and MYRJ 52 solutions at 1, 5 and 15 weight percent, 37° C.): increased by each surfactant

Reference: patent US20050175696A1, “Drug granule coatings that impart smear resistance during mechanical compression” (priority 2003, published 2005)
